Test results taken from ChEMBL document CHEMBL1201862, “PubChem BioAssay data set” (2004).
Active and inactive are the calls of the source.

Assays:
[1] = test system: Vero; assay: cells; format: functional; settings: Chlorocebus sabaeus
[2] = target: Nonstructural protein 1 (Influenza A virus, UniProt Q194T2); format: functional, Influenza A virus (A/California/07/2009(H1N1))
[3] = target: T1, Protein RecA (Mycobacterium tuberculosis, UniProt P9WHJ3); assay: Fluorescence Cell-Free Homogeneous Dose Retest to Identify Inhibitors of RecA-Intein Splicing Activity. [Related pubchem assays (depositor defined):AID2097, AID2223, AID489010, AID492950]; format: functional
T1 sequence (P9WHJ3 whole entry): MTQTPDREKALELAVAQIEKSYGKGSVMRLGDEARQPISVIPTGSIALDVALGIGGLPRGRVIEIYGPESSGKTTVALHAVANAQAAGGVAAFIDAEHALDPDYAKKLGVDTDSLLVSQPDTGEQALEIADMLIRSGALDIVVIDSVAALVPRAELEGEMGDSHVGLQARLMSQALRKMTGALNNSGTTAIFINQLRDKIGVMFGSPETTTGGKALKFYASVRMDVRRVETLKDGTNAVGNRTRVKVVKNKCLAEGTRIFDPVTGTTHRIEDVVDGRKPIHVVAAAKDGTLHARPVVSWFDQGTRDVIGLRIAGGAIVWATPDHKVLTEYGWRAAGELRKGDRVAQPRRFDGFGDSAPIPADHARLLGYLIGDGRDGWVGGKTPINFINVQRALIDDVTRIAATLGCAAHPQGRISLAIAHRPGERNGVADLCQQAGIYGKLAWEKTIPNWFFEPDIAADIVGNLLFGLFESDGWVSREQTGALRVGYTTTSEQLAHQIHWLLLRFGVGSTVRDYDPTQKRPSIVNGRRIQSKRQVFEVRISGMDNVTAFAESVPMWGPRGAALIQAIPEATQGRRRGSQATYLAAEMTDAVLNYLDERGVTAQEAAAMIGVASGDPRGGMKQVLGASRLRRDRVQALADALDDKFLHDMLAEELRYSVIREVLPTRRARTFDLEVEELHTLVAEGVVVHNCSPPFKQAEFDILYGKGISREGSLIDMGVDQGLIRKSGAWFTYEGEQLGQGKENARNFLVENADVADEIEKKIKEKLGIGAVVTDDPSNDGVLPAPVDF

[4] = target: T2, Replicative DNA helicase DnaB (Mycobacterium tuberculosis, UniProt P9WMR3); assay: DnaB intein splicing inhibitors, dose response, biochemical, cell-free fluorescence (AID 449749); format: functional
T2 sequence (P9WMR3 whole entry): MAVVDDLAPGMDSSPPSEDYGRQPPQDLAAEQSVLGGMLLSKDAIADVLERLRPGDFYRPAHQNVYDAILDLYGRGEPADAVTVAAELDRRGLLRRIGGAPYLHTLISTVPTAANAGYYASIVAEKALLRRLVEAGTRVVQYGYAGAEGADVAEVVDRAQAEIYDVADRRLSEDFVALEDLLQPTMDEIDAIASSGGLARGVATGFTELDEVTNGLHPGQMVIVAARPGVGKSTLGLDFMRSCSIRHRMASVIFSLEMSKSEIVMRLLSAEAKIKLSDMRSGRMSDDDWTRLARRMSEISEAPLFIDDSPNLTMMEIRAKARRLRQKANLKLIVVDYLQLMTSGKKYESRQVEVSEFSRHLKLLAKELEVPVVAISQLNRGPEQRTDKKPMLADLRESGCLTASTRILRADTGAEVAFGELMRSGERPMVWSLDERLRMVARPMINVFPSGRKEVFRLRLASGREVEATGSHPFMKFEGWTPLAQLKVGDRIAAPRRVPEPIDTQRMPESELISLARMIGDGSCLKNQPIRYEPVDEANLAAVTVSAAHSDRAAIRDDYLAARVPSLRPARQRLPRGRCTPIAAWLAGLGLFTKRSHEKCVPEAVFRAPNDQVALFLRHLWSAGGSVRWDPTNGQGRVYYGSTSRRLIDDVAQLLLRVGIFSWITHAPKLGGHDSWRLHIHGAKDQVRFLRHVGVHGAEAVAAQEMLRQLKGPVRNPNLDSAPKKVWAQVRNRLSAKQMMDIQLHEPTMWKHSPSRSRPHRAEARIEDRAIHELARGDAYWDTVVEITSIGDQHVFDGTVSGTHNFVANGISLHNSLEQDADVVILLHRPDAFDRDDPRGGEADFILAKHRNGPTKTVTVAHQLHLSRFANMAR

[5] = intracellular Trypanosoma cruzi inhibitors in host cells – cell-based, plate reader, cherry-pick samples, set 3, dose response (AID 651818); format: functional;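 note: compounds incubated with infected cells for about four days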
[6] = target: Induced myeloid leukemia cell differentiation protein Mcl-1 (Homo sapiens, UniProt Q07820); format: functional
Induced myeloid leukemia cell differentiation protein Mcl-1, sequence (Q07820 whole entry): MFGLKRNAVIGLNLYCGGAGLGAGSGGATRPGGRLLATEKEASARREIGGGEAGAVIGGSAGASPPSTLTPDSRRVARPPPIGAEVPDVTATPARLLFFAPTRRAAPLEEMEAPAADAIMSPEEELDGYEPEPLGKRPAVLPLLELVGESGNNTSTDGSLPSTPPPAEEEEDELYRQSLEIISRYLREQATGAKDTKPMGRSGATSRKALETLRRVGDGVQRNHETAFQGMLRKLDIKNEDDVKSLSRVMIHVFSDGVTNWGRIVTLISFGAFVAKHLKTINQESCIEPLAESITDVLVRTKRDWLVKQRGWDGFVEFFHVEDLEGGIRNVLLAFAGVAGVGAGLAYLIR

[7] = test system: INS1; assay: beta cell apoptosis inhibitors, cytokine rescue, dose response, luminescence, retest (AID 449756); format: functional, cell-based; settings: Rattus norvegicus;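 note: cell death triggered by IL-1 beta plus TNF-alpha plus IFN-gamma mixture; protective hits raise ATP signal compared with cytokine alone wells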
[8] = inhibitors of intracellular T. cruzi replication, confirmation, NIH3T3 host cells, beta-gal luminescence (AID 2044); format: functional, cell-based;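 note: intracellular parasites grown in NIH/3T3 mouse fibroblasts as host cells; luminescent beta-galactosidase reporter signal from transgenic T. cruzi replicating inside host cells; inhibitors lower the luminescence signal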
[9] = cytotoxicity toward NIH3T3 fibroblasts, dose response, counter-screen, cell-based, ATP luminescence, mouse fibroblasts (AID 2010); format: functional;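 note: cells exposed to compound for about 90 hours before reading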
[10] = target: T3, RNA-binding protein pos-1 (Caenorhabditis elegans, UniProt G5EF15); assay: inhibitors of POS-1/mex-3 RNA binding, dose response, biochemical, fluorescence polarization (AID 1964);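 note: purified POS-1 fused to maltose binding protein made in E. coli; potency of compounds blocking POS-1 binding to fluorescent RNA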
T3 sequence (G5EF15 whole entry): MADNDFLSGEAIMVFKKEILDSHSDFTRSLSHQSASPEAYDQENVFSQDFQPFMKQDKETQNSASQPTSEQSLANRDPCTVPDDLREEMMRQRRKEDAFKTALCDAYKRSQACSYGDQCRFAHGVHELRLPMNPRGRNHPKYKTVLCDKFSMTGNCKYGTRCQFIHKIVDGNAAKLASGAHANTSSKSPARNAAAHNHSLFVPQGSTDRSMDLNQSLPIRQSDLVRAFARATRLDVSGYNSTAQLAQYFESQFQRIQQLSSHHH

[11] = target: T4, Zinc finger protein mex-5 (Caenorhabditis elegans, UniProt Q9XUB2); assay: MEX-5/TCR-2 RNA interaction inhibitors, dose response, biochemical, C. elegans, fluorescence polarization (AID 1960)
T4 sequence (Q9XUB2 whole entry): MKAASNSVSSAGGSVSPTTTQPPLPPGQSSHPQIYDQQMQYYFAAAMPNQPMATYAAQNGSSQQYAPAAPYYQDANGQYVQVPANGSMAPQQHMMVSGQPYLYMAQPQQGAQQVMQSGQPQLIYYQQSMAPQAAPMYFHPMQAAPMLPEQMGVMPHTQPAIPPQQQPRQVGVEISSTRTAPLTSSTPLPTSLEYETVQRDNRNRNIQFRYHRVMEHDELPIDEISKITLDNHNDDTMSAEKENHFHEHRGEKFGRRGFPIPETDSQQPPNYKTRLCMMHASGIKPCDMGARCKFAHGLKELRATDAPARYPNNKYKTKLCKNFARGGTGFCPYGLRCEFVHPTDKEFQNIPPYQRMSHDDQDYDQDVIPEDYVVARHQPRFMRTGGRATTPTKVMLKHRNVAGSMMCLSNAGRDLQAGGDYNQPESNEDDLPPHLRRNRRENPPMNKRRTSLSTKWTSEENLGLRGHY

[12] = target: Cytochrome P450 2C19 (Homo sapiens, UniProt P33261); assay: Cytochrome panel assay with activity outcomes. Panel member name: p450-cyp2c19 Compounds with AC50 equal or less than 10 uM are considered active; format: functional; settings: read-out: AC50
Cytochrome P450 2C19, sequence (P33261 whole entry): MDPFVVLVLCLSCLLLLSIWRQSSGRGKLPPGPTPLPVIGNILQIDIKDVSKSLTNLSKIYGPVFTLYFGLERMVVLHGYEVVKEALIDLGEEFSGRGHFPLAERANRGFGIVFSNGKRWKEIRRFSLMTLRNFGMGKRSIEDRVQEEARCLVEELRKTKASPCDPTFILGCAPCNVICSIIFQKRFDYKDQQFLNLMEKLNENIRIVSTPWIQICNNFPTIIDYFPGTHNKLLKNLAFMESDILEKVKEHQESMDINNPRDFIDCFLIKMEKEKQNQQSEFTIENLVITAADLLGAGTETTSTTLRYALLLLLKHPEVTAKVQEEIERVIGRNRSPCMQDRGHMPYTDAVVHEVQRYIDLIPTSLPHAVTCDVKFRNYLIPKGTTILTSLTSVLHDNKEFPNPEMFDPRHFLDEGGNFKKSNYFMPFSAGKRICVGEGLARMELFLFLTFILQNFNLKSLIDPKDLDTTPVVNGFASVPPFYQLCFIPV

[13] = Luminescence Cell-Based Dose Retest to Confirm Inhibitors of Cancer Stem Cells. [Related pubchem assays (depositor defined):AID2717, AID2721]; format: functional; settings: Homo sapiens
[14] = Luminescence Cell-Based Dose Response HTS to Identify Activators of Luciferase Translation or Activity in H4 […] Cells. [Related pubchem assays: 1829 (Project Summary), 1814 (Primary HTS)]; format: functional
[15] = target: T5, Rac GTPase-activating protein 1 (Homo sapiens, UniProt Q9H0H5); assay: MgcRacGAP GTPase-activating activity inhibitors, confirmation, biochemical, ADP Hunter fluorescence, primary and confirmatory (AID 624330); format: functional
T5 sequence (Q9H0H5 whole entry): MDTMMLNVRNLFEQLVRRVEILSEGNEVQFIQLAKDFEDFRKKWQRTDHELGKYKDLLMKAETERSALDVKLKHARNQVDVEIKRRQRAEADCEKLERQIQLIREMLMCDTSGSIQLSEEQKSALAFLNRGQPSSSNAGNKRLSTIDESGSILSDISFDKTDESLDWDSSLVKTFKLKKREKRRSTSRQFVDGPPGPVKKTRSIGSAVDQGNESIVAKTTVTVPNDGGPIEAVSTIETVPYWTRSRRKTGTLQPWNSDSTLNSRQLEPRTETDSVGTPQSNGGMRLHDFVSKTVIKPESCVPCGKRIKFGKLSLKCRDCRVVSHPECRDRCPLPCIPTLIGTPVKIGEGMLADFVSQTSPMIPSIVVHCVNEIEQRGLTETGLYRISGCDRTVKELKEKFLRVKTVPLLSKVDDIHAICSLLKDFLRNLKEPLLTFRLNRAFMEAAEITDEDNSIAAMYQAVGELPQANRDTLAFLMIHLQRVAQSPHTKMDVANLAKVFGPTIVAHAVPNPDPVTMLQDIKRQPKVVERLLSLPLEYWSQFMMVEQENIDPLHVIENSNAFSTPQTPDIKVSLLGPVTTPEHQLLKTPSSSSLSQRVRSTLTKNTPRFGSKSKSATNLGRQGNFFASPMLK

[16] = test system: H4; assay: Luminescence Cell-Based Dose Response HTS to Identify Activators of 5'UTR Stem-Loop Driven Prion Protein mRNA Translation in H4 Neuroglioblastoma Cells. [Related pubchem assays: 1829 (Project Summary), 1814 (Primary HTS)]; format: functional; settings: Homo sapiens

Nonstructural protein 1, sequence (Q194T2 whole entry): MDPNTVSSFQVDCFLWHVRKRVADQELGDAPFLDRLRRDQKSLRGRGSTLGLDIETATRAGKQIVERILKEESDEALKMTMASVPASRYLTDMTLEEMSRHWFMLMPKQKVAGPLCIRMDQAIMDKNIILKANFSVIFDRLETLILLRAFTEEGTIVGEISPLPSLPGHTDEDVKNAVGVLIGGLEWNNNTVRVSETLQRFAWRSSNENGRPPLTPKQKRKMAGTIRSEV

CCN1CCN(Cc2ccc(NC(=O)c3cc(NC(=O)N4CCNC4=O)cc(OC)c3)cc2C(F)(F)F)CC1
CC50 [1]: > 25 µM (active)

O=C(NCC1CCCO1)C(=O)N/N=C/c1cc(Cl)ccc1O (stereo unspecified)
IC50 [2]: 7.81 µM (active)

Cc1ccc(-n2nc(C)c3c2OC(N)=C(C#N)C3c2ccc(C)o2)cc1 (stereo unspecified)
EC50 [3]: 25.7 µM (inconclusive)
AC50 [4]: 5.9 µM (active)
IC50 [2]: 24.9 µM (active)

C[C@H](CO)N1C[C@H](C)[C@@H](CN(C)Cc2ccccc2)Oc2c(NC(=O)CCCCCC(=O)Nc3ccccc3N)cccc2C1=O
AC50 [5]: 3.24 µM (active)

C/C(=C\c1ccco1)C1Nc2cccc3cccc(c23)N1
IC50 [6]: 8.61 µM (active)

C[C@@H]1CCCCO[C@H](CN(C)Cc2ccc(Cl)c(Cl)c2)[C@@H](C)CN([C@H](C)CO)C(=O)c2cc(NC(=O)Nc3ccc4c(c3)OCO4)ccc2O1
AC50 [5]: 4.02 µM (active)

COc1ccc(NC(=O)Nc2cccc3c2O[C@H](CN(C)Cc2ccc(C(=O)Nc4ccccc4N)cc2)[C@@H](C)CN([C@@H](C)CO)C3=O)cc1
AC50 [5]: 1.92 µM (active)

Cc1[nH]c2ccccc2c1CN1CCC(Cc2ccccc2)CC1
AC50 [7]: 3.46 µM (active)
EC50 [8]: 0.212 µM (active)
EC50 [9]: 10.9 µM (active)
CC50 [1]: > 25 µM (active)

CCCN1C(=O)S/C(=C/c2ccc(N3CCOCC3)o2)C1=O
CC50 [1]: > 25 µM (active)

C[C@H]1CN([C@@H](C)CO)C(=O)Cc2cc(NC(=O)Nc3ccc(C(F)(F)F)cc3)ccc2O[C@H]1CN(C)Cc1ccccc1
AC50 [5]: 3.08 µM (active)

O=C(NN1C(=O)c2ccccc2NC1c1ccccn1)c1ccc(Br)cc1 (stereo unspecified)
EC50 [10]: 64.9 µM (active)
EC50 [11]: 15.5 µM (active)

O=C(COC(=O)C1CCCCC1)Nc1ccc(N2CCCCC2)cc1
IC50 [2]: 34.6 µM (active)

C[C@H](CO)N1C[C@H](C)[C@@H](CN(C)C(=O)Nc2cccc3ccccc23)Oc2c(NC(=O)Nc3ccc4c(c3)OCO4)cccc2C1=O
AC50 [5]: 6.85 µM (active)

C[C@@H]1CN([C@H](C)CO)C(=O)Cc2cc(NS(=O)(=O)c3ccc(Cl)cc3)ccc2O[C@H]1CN(C)Cc1ccc2c(c1)OCO2
AC50 [5]: 3.53 µM (active)

CC(=O)c1ccc(-n2c(CCC(=O)O)ccc2-c2cccs2)cc1
AC50 [12]: 11.2 µM (inconclusive)
IC50 [6]: 9.23 µM (not active)

Cc1cc([N+](=O)[O-])nn1CC(=O)N/N=C/c1ccc(O)cc1O
AC50 [13]: 12.1 µM (active)
IC50 [2]: 14.2 µM (active)

CN(C)C=O.Oc1cccc2c(NC(S)=Nc3ccc(OC(F)F)cc3)cccc12
EC50 [14]: 12.8 µM (active)
IC50 [15]: 116 µM (active)
EC50 [16]: > 120 µM (not active)

COc1ccc(C(=O)C[n+]2ccc(-c3nnc4n3CCCCC4)cc2)cc1
IC50 [6]: > 54 µM (active)

O=C(CCSc1ccc(Cl)cc1)N1CCCCCC1
EC50 [14]: > 120 µM (not active)
EC50 [16]: 21.6 µM (active)

Cn1cc(/C=C2/SC(=O)N(c3ccccc3)C2=O)c2ccccc21
EC50 [14]: 50.8 µM (active)
EC50 [16]: 94.6 µM (active)

CC(C)C(=O)OCC(=O)Nc1ccc(N=Nc2ccccc2)cc1
IC50 [2]: > 100 µM (active)

N#Cc1c(-c2ccc(Cl)cc2)c2c([nH]c1=O)-c1ccccc1OC2
EC50 [10]: > 300 µM (not active)
EC50 [11]: 53 µM (active)

C[C@H](CO)N1C[C@H](C)[C@@H](CN(C)Cc2ccc(C(F)(F)F)cc2)Oc2c(NS(=O)(=O)c3ccccc3)cccc2C1=O
AC50 [5]: 8.8 µM (active)

C[C@@H]1CN([C@@H](C)CO)C(=O)c2cccc(NC(=O)Nc3ccc(C(F)(F)F)cc3)c2O[C@@H]1CN(C)Cc1ccc(Oc2ccccc2)cc1
AC50 [5]: 6.09 µM (active)

Cc1noc(C)c1NC(=O)Nc1cccc2c1O[C@@H](CN(C)S(C)(=O)=O)[C@@H](C)CN([C@@H](C)CO)C2=O
AC50 [5]: 1.01 µM (active)

C[C@@H]1CCCCO[C@@H](CN(C)Cc2ccc(Cl)c(Cl)c2)[C@@H](C)CN([C@H](C)CO)C(=O)c2cc(NC(=O)Nc3ccc(F)cc3)ccc2O1
AC50 [5]: 2.38 µM (active)

N=C1/C(=C\c2ccc(SCc3ccccc3)o2)C(=O)N=C2SC(CC(=O)N3CCOCC3)=NN12
EC50 [10]: 63.4 µM (active)
EC50 [11]: 33.3 µM (active)
